From patent publication US20090311214A1, “COMPOSITIONS AND METHODS FOR THE INNATE IMMUNE RESPONSE PATHWAY” (UNIVERSITY OF MARYLAND, BALTIMORE, priority 2008, published 2009)
Entries after “also recorded” stand apart in the source; their conditions may differ.

How the values were obtained:
Assay type in all cases: cell-based, human
[1] = tested on: monocytes; assay: Purified lymphocytes, monocytes or monocyte-derived DC with PTG, β-glucan or IL-1β
Procedure: (§1) IL-23 is only secreted by activated APC such as monocytes, macrophages and DC, which reduces the number of possible cell sources considerably. To determine which of these cell populations was the source of IL-23 in response to PTG, purified lymphocytes, monocytes, or monocyte-derived DC cultured with GM-CSF and IL-4, were incubated in the presence or absence of PTG for 24 h, at which time supernatants were collected for IL-23, IL-1β, IL-6, IFNγ and TNFα analysis. […] Since neither PTG nor β-glucan activated cytokine production in DC differed from monocytes, we examined the response after pretreatment with IFNγ, given that this treatment has been necessary for the IL-23 response to a variety of agents including β-glucan. immDC were cultured in the presence or absence of IFNγ for 18 h prior to addition of PTG, after which supernatants were subjected to cytokine analysis as described above. […] Moreover, these findings provide insight to the mechanisms in which IFNγ counteracts IL-1 dependent TH17 responses.
While IL-1β is produced by many cell types, IL-23 production is thought to be restricted to activated APC. […] To investigate this hypothesis, we exposed purified lymphocytes, monocytes, or monocyte-derived DC (cultured with GM-CSF and IL-4 for 72 h) to PTG overnight and analyzed the cell-free culture supernatants for IL-23 and related “Th17” polarizing mediators.
Elutriated monocyte cultures. 5×10^5 monocytes/ml were cultured in cRPMI with and without 100 μg/ml PTG, 100 μg/ml β-glucan, or 0.5-50 ng/ml rhIL-1β in 96 well U-bottom plates at 37° C. in 5% CO2 for 20 h. Alternatively, 5×10^5 monocytes/ml were incubated with 0.5 μg/ml rhIL-1ra at 37° C. in 5% CO2 for 1 h then cultured with and without 100 μg/ml PTG or β-glucan for an additional 20 h. […]
Cytokine & chemokine analysis. Cell-free culture supernatants were analyzed for IL-1β, IL-1ra, IL-6, IL-12p70, IFNγ, TNFα (Bio-Plex Cytokine Assay kit, Bio-Rad) or IL-1β, IL-23 (ELISA kit, eBiosciences), IL-1ra and CCL20 (Quantikine ELISA kit, R & D Systems) following the manufacturers' protocols. […]

[2] = tested on: PBMC; assay: PBMC cultures with PTG, β-glucan, IL-1β or α-gliadin peptides; cytokine/chemokine analysis of supernatants
Procedure: We cultured PBMC from HLA-DQ2 positive and HLA-DQ2 negative healthy persons in the presence or absence of 100 ug/ml of PTG or β-D-glucan from barley as a positive control for 20 h. Cell-free culture supernatants were harvested and analyzed for proinflammatory cytokines IL-1β, IL-6, IFNγ, TNFα (Luminex) IL-23 and the TH17 chemokine CCL20/MIP-3α (ELISA).
(§2) PBMC cultures. PBMC from CD patients and HLA-DQ2^+ healthy controls was tested as follows. 10^6 PBMC/ml were incubated in RPMI-1640 supplemented with 10% heat inactivated hAB, 1% L-glutamine, 1% Pen-Strep and 20 mM Hepes Buffer (cRPMI) with and without PTG, β-glucan, 5 ng/ml rhIL-1β, or 10 μg/ml pooled synthetic 20 mers of α-gliadin in 96 well U-bottom plates (Denville Scientific Inc.) at 37° C. in 5% CO2 for 6, 24, 48, or 72 h. Alternatively, 10^6 PBMC/ml were incubated with 0.5 μg/ml rhIL-1ra at 37° C. in 5% CO2 for 1 h then cultured with and without 100 μg/ml PTG or 500 μg/ml β-glucan for an additional 20 h. Cell-free culture supernatants were harvested for cytokine and chemokine analysis.
(§3) Cytokine & chemokine analysis. Cell-free culture supernatants were analyzed for IL-1β, IL-1ra, IL-6, IL-12p70, IFNγ, TNFα (Bio-Plex Cytokine Assay kit, Bio-Rad) or IL-1β, IL-23 (ELISA kit, eBiosciences), IL-1ra and CCL20 (Quantikine ELISA kit, R & D Systems) following the manufacturers' protocols. Appropriate standard curves were included in each assay.

[3] = tested on: IFNγ-treated immDC; assay: IFNγ-treated immDC exposed to PTG with or without IL-1ra or IL-1β; conditions: addition to IFNγ-treated immDC
Procedure: as §1, with “responses. […]” for “responses.”

[4] = tested on: PBMC; assay: PBMC pretreated with IL-1ra before stimulation with PTG or β-glucan
Procedure: Considering the essential role for IL-1β in the IL-23/TH17 innate response in purified monocytes, we predicted that IL-1β regulates the cytokine profile triggered by PTG and β-glucan in whole PBMC as well. To this end, PBMC were pretreated with IL-1ra for 1 h prior to stimulation with PTG or β-glucan, or incubated with 5 ng/ml IL-1β alone for 20 h.
as §2, §3

[5] = tested on: monocytes; assay: Purified monocytes pretreated with IL-1ra before PTG or β-glucan
Procedure: To better understand the contribution of IL-1 signaling in the IL-23/TH17 innate response to PTG in monocyte and immDC populations, we pretreated monocytes, immDC and IFNγ-treated immDC with the naturally occurring anti-inflammatory IL-1 receptor antagonist (IL-1ra) for 1 h prior to stimulation with PTG or β-glucan as a positive control, or incubated with increasing doses of exogenous IL-1β for 20 h. […] Contradictory to the monocyte response, addition of IL-1ra or IL-1β to IFNγ-treated immDC had no effect on the IL-23/TH17 profile induced by PTG exposure (FIG. 3D), providing further indication that monocytes exposed to gluten and not their progeny DC have the potential to activate autoreactive memory TH17 cells. Indeed, other groups have reported in human studies that activated monocytes, which produce IL-1β and IL-23, are the best inducers of TH17 cells (Evans et al., Proc. Natl. Acad. Sci., U.S.A., 104(43):17034-17039 (2007)).
Elutriated monocyte cultures. 5×10^5 monocytes/ml were cultured in cRPMI with and without 100 μg/ml PTG, 100 μg/ml β-glucan, or 0.5-50 ng/ml rhIL-1β in 96 well U-bottom plates at 37° C. in 5% CO2 for 20 h. Alternatively, 5×10^5 monocytes/ml were incubated with 0.5 μg/ml rhIL-1ra at 37° C. in 5% CO2 for 1 h then cultured with and without 100 μg/ml PTG or β-glucan for an additional 20 h. Cell-free culture supernatants were harvested for cytokine and chemokine analysis.
as §3

[6] = PBMC, 5 ng/ml IL-1β alone, 20 h
[7] = monocytes, IL-1ra 1 h prior to stimulation

Substance | cell source of IL-23, IL-1β, CCL20, TNFα and IL-6 secretion ([1]; purified lymphocytes, monocytes, monocyte-derived DC, 100 μg/ml PTG, 24 h) | dose dependence of IL-1β and IL-23 production ([2]; PBMC from CD patients, 25-500 μg/ml, 24 h) | IL-23 response in HLA-DQ2+ compared to HLA-DQ2 negative healthy individuals ([2]; PBMC, 24 h) | concentration at which detectable levels of IL-23 were achieved ([2]; dose response curves, PBMC from CD patients, 24 h) | IL-23 response of monocytes to exogenous IL-1β ([1]; 0.5, 5 or 50 ng/ml rhIL-1β, 20 h) | capacity to activate IL-23 secretion, reduced compared to PTG or β-glucan ([1]; purified monocytes, 20 h, means of 5 experiments) | CCL20 and IL-6 produced compared with PTG [2, 6] | IL-23 and TNFα produced compared with PTG [2, 6] | capacity to stimulate IL-23 production, lower than that of PTG or β-glucan ([2]; PBMC, 5 ng/ml IL-1β, 20 h, mean of 10 experiments) | IL-23 production by IL-1β alone relative to PTG and β-glucan ([2]; PBMC, physiologic concentrations of exogenous IL-1β) | effect on the IL-23/TH17 profile induced by PTG exposure [3] | IL-23 and IL-1β responses to PTG and β-glucan ([4]; 0.5 μg/ml IL-1ra 1 h prior, stimulation 20 h, mean of 10 experiments) | induction of IL-23 in response to PTG and β-glucan ([4]; PBMC from CD patients) | levels of IL-1β in PBMC treated with PTG or β-glucan ([4]; PBMC from CD patients) | IL-23, TNF-α, IL-6 and CCL20 responses to PTG and β-glucan ([4]; PBMC from healthy individuals, IL-1ra 1 h prior to stimulation, 20 h) | reduction of the IL-1β response ([4]; PBMC, IL-1ra 1 h prior to PTG or β-glucan, 20 h) | IL-23, TNFα, IL-6 and CCL20 responses to PTG [5, 7] | cytokine response to β-glucan [5, 7] | IL-23 responses to PTG and β-glucan ([5]; purified monocytes, 0.5 μg/ml IL-1ra, 20 h) | IL-1β and IL-23 responses generated by monocytes exposed to gliadin ([5]; summary statement)
β-D-glucan [β-glucan, reference compound] | confined to monocytes | dose-dependent production | substantially more IL-23; also recorded: more pronounced effect | 500 µg/mL |  |  |  |  |  |  |  |  |  |  |  |  |  |  |  | 
IL-1β: recombinant human IL-1β purchased from R & D Systems |  |  |  |  | dose dependent manner | ~10 fold | equivalent concentrations | reduced levels | ~10 fold | much lower levels | had no effect |  |  |  |  |  |  |  |  | 
IL-1ra: naturally occurring anti-inflammatory IL-1 receptor antagonist; recombinant human, purchased from R & D Systems |  |  |  |  |  |  |  |  |  |  | had no effect | significantly inhibits | completely inhibited | markedly reduced | inhibits; also recorded: almost completely inhibited | ~60% | drastically inhibited | inhibited | significantly inhibited; also recorded: blocks | substantially inhibits
